Earlier results, collected in US12208399B2, “Electrochemical separation and recovery of metals” (YALE UNIVERSITY, priority 2017, dated 2025).
Converted amounts (≈) assume the structure as drawn.

Compound | Solubility in water
Cc1cc2nc3c(=O)[nH]c(=O)nc-3n(C[C@@H](O)[C@@H](O)[C@@H](O)COP(=O)(O)O)c2cc1C [RMP, riboflavin 5′-monophosphate] | 100 g/L (≈ 219 mM)
O=C1C(Cl)=CC(=Nc2ccc(O)cc2)C=C1Cl [DCIP, 2,6-dichloroindophenol] | 10 g/L (≈ 37.3 mM)
